Assay in all cases: purified recombinant isozyme activity assay, NADH formation at […] nm with acetaldehyde and NAD+
What all share (format): biochemical

One test addresses T1, ALDH1A1 (Homo sapiens, UniProt P00352).
T1 sequence (P00352 2-501): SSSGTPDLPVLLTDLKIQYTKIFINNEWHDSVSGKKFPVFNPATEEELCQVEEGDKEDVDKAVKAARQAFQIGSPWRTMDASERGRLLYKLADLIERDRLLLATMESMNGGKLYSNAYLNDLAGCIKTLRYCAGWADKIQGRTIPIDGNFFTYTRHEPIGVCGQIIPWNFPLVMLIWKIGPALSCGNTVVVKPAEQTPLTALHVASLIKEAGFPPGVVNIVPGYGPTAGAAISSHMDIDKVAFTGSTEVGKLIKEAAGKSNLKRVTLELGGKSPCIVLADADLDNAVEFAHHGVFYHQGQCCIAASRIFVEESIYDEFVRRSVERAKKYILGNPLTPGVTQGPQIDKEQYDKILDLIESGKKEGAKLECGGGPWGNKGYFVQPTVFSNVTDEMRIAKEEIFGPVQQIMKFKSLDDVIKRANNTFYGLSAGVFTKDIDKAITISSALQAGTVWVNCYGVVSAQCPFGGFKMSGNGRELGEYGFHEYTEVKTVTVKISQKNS

For another test, the target named is T2, ALDH3A1 (Homo sapiens, UniProt P30838).
T2 sequence (P30838 2-453): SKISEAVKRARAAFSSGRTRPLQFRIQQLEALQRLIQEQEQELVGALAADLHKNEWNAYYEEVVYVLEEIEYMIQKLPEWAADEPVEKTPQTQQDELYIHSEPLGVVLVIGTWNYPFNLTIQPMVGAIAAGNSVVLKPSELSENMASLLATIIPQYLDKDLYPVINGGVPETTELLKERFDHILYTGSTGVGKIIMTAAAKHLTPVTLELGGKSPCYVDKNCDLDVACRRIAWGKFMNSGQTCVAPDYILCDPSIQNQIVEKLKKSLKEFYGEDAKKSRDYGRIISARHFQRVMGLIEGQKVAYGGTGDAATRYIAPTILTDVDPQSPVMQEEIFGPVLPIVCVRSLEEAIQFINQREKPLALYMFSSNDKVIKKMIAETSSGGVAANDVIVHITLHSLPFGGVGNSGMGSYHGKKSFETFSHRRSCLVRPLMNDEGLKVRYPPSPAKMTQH

The target of the next test is T3, ALDH2 (Homo sapiens, UniProt P05091).
T3 sequence (P05091 18-517): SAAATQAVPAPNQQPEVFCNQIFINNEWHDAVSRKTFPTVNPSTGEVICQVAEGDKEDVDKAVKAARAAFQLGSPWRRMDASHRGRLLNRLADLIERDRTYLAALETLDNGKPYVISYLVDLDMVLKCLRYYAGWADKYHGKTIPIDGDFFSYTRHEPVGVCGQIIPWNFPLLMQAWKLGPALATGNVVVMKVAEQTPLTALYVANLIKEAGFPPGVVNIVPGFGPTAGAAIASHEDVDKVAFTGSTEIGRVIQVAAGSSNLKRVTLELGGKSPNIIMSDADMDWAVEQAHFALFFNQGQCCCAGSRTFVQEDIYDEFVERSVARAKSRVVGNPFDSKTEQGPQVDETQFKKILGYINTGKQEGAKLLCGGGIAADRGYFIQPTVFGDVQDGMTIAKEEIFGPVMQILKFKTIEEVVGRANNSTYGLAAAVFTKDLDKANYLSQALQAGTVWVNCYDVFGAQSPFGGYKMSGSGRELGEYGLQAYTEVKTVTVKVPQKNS

As for `CN(C)CCC(=O)c1ccc(Br)cc1` [Aldi-6, 3-(Dimethylamino)-4′-bromopropiophenone], the IC50 (in general, the concentration needed to halve the response being measured) at ALDH1A1 amounted to 600 nM; on ALDH3A1 it was 1000 nM; at ALDH2, 800 nM.
